Results from PubChem BioAssay (NCI).
Values joined by “and” are separate entries in the source; they are usually repeats but may differ in a detail not shown here. Identical values can stand only once.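 Grown in 96-well plates, cells were treated for 48 hours with each compound at five concentrations. Insufficient inhibition: endpoint recorded as highest concentration tested. GI50 = concentration required for 50% inhibition of growth. TGI: concentration producing complete growth inhibition.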

Experiments:
Assay in all cases: NCI-60 cell line screen, 48 h
HS 578T breast = test system: HS 578T breast
ACHN renal = test system: ACHN renal
HOP-62 NSCLC = test system: HOP-62 NSCLC
UACC-62 melanoma = test system: UACC-62 melanoma
SN12C renal = test system: SN12C renal
NCI-H522 lung = test system: NCI-H522 lung
RPMI-8226 leukemia = test system: RPMI-8226 leukemia
SF-295 CNS = test system: SF-295 CNS
MCF7 breast = test system: MCF7 breast
SF-268 CNS = test system: SF-268 CNS

Row | Structure (SMILES) | TGI (HS 578T breast) | TGI (ACHN renal) | TGI (HOP-62 NSCLC) | TGI (UACC-62 melanoma) | TGI (SN12C renal) | TGI (NCI-H522 lung) | TGI (RPMI-8226 leukemia) | TGI (SF-295 CNS) | TGI (MCF7 breast) | TGI (SF-268 CNS) | GI50 (HS 578T breast) | GI50 (ACHN renal) | GI50 (HOP-62 NSCLC) | GI50 (UACC-62 melanoma) | GI50 (SN12C renal) | GI50 (NCI-H522 lung) | GI50 (RPMI-8226 leukemia) | GI50 (SF-295 CNS) | GI50 (MCF7 breast) | GI50 (SF-268 CNS)
1 | CCCCOc1ccc(NC(N)=Nc2ccc(Cl)cc2)cc1 | 21 µM | 12.7 µM | 2.86 µM | 26 µM | 15.9 µM | 16.5 µM | > 49.5 µM | 6.34 µM | 4.2 µM | 12.9 µM |  |  |  |  |  |  |  |  |  | 
2 | CCN(Cc1ccc(F)c(F)c1)c1ccc(CO)c(Cl)c1 | 40 µM | 22.8 µM | 17.4 µM | 0.919 µM | 23.9 µM | 30.2 µM | 28.9 µM | 12.1 µM | 12.3 µM | 32.4 µM | 12.4 µM | 9.77 µM | 1.71 µM | 0.12 µM | 11 µM | 13.2 µM | 2.44 µM | 0.51 µM | 0.195 µM | 15 µM
3 | N#Cc1cnc2cc(OC[C@H](O)CO)c(NC(=O)CC3CSSC3)cc2c1Nc1ccc(OCc2cccc(F)c2)c(Cl)c1 | 1.69 µM | 5.42 µM | 1.81 µM | 1.68 µM | 1.1 µM | 1.59 µM | 2.49 µM | 1.6 µM | 0.176 µM | 1.56 µM | 0.447 µM | 1.73 µM | 0.895 µM | 0.807 µM | 0.35 µM | 0.729 µM | 1.09 µM | 0.83 µM | 0.0865 µM | 0.537 µM
4 | COc1cccc(/C=C/C(=O)c2cccc(Nc3nc(Nc4ccccc4)nc(Nc4ccccc4)n3)c2)c1 | 61.7 µM | > 100 µM | > 78.1 µM | > 100 µM | > 100 µM | > 100 µM | 6.49 µM |  | 6.91 µM | > 89.9 µM | 15.8 µM | 67.3 µM | > 46.9 µM | > 100 µM | 48.5 µM | 15.1 µM | 1.78 µM | 1.96 µM | 1.37 µM | 20.9 µM
5 | O=C(c1ccc(F)cc1)c1cccc(C(=O)c2ccc(F)cc2)n1 | > 94.8 µM | > 100 µM | 48.6 µM | > 100 µM | > 56.2 µM | 71.5 µM | > 100 µM | 39.3 µM | > 100 µM | 67.8 µM |  |  |  |  |  |  |  |  |  | 
6 | COc1cc(C2c3cc4c(cc3OC(N3CCCC3)C2C)OCO4)cc(OC)c1OC (centres undefined) | 2.3 µM | 38.3 µM | 22.5 µM | 20.7 µM | 28 µM | 1.55 µM | > 19.9 µM | 2.55 µM | 4.06 µM | > 59.3 µM |  |  |  |  |  |  |  |  |  | 
7 | Cc1sc(C(=O)Nc2cc(C(=O)NCCCN(C)C)n(C)c2)cc1NC(=O)CCCN1C(=O)c2cccc3cccc(c23)C1=O | > 100 µM | > 100 µM | > 100 µM | > 100 µM | > 100 µM | > 100 µM | > 100 µM | > 100 µM | > 100 µM | > 100 µM | > 100 µM | > 100 µM | > 100 µM | > 100 µM | > 100 µM | > 100 µM | > 100 µM | > 100 µM | > 100 µM | > 100 µM
8 | O=C1OC(=O)C(c2c[nH]c3ccccc23)=C1c1c[nH]c2ccccc12 | > 25 µM | > 25 µM | > 25 µM | > 25 µM | > 25 µM | > 25 µM | > 25 µM | > 25 µM | > 25 µM | > 25 µM | > 25 µM | > 25 µM | > 25 µM | > 25 µM | > 25 µM | > 25 µM | > 25 µM | > 25 µM | > 25 µM | > 25 µM
9 | CCN(CC)CCn1ccc(=O)c2cc3c(=O)ccn(CCN(CC)CC)c3c(C)c21 | 17.5 µM | 20.1 µM | 19.7 µM | 29.2 µM | 21.3 µM | 20.7 µM | 6.8 µM | 17.2 µM | > 100 µM | 17.2 µM |  |  |  |  |  |  |  |  |  | 
10 | Nc1ccn(Cc2ccc(C34CC5CC(CC(C5)C3)C4)c(O)c2)c(=O)n1 | > 100 µM | > 100 µM | 76.4 µM | > 100 µM | > 100 µM | > 100 µM | > 100 µM | > 100 µM | > 100 µM | > 100 µM | 14.4 µM | > 100 µM | 22.5 µM | > 100 µM | > 100 µM | 40.9 µM | > 100 µM | 31.5 µM | 91.5 µM | 67.1 µM
11 | COC(=O)[C@@H](C)C[C@H](Cc1ccccc1)NC(=O)c1nc([C@@H](C[C@H](C(C)C)N(C)C(=O)[C@@H](NC(=O)[C@H]2CCCCN2C)C(C)C)OC(C)=O)sc1C | > 16.7 µM | > 16.7 µM | > 16.7 µM | > 16.7 µM | > 16.7 µM | < 0.00167 µM | > 11.4 µM | > 16.7 µM | > 16.7 µM | > 16.7 µM | 0.0024 µM | 0.00585 µM | 0.00186 µM | < 0.00167 µM | < 0.00167 µM | < 0.00167 µM | < 0.00167 µM | < 0.00167 µM | < 0.00167 µM | 0.00472 µM
12 | C[C@@H](C(=O)Nc1ccc(Cl)cc1)C1CCC(c2ccnc3ccc(F)cc23)CC1 (some centres undefined) | 68.5 µM | > 100 µM | > 100 µM | 47.2 µM | 44.4 µM | 70.5 µM | 13.9 µM | > 100 µM | 97.5 µM | 60.9 µM | 9.3 µM | 4.61 µM | 19.4 µM | 10.3 µM | 8.23 µM | 10.7 µM | 2.85 µM | 8.12 µM | 4.4 µM | 8.55 µM
13 | CC(C)NC[C@@H](C(=O)N1CCN(c2ncnc3c2[C@H](C)C[C@H]3O)CC1)c1ccc(Cl)cc1 | > 10 µM and 18.4 µM | > 100 µM | > 100 µM | > 100 µM | > 100 µM | > 100 µM | > 100 µM | > 75.1 µM | > 100 µM | > 100 µM | 1 µM and 0.657 µM | > 10 µM and 22.8 µM | > 10 µM and 11.9 µM | 1.9 µM and 6 µM | > 10 µM and 44.7 µM | > 100 µM | > 10 µM and 38.1 µM | 0.68 µM and 0.47 µM | 1.6 µM and 1.74 µM | > 10 µM and 28.7 µM
